One data set relates to A2780 (ovary) cells. The data set can be described thus: Inhibition of the proliferation/vitality of tumour cells (Alamar Blue test). The format is cell-based. The conditions noted are these: Homo sapiens, 96 h, 4 days cultivation with test substance in serum-containing medium, Alamar Blue readout. On the procedure:
In the present experiment description, the inhibition of tumour cell proliferation/tumour cell vitality by active ingredients is described. The cells are sown in a suitable cell density in microtitre plates (96-well format) and the test substances are added in the form of a concentration series. After four further days of cultivation in serum-containing medium, the tumour cell proliferation/tumour cell vitality can be determined by means of an Alamar Blue test system.
The cells are cultivated in medium. At intervals of several days, the cells are detached from the culture dishes with the aid of trypsin solution and sown in suitable dilution in fresh medium. The cells are cultivated at 37° Celsius and 10% CO2. […]
In each case, 20 μl of Alamar Blue reagent are added per well, and the microtitre plates are incubated, for example, for a further seven hours in a CO2 incubator (at 37° C. and 10% CO2). The plates are measured in a reader with a fluorescence filter at a wavelength of 540 nm. […]
The absorbance value of the medium control (no cells and test substances used) is subtracted from all other absorbance values. The controls (cells without test substance) are set equal to 100 percent, and all other absorbance values are set in relation thereto (for example in % of control):
IC50 values (50% inhibition) are determined with the aid of statistics programs, such as, for example, RS1.
Background: Alamar Blue is a resazurin reagent that responds to reducing activity.

Each structure is given as a SMILES string.

Usually melting point stands for the temperature, or range, at which the solid turns liquid. As usually defined, the IC50 is the concentration needed to halve the response being measured. Read a low IC50 as higher potency.

Consider `CCCCc1cc(-c2c[nH]c3cnccc23)nc(N)n1` [Compound A1, 4-butyl-6-(1H-pyrrolo[2,3-c]pyridin-3-yl)pyrimidin-2-ylamine], for which the melting point is 184 to 187 °C (dec.).
In the case of `c1ccc(Nc2nccc(-c3c[nH]c4cnccc34)n2)cc1` [Compound A3, phenyl-[4-(1H-pyrrolo[2,3-c]pyridin-3-yl)pyrimidin-2-yl]-amine], in the data set on A2780 (ovary) cells, the half-maximal inhibitory concentration (IC50) lay within 0.01 to 1 µM.
The same measure, in the same setting: for `Nc1nccc(-c2c[nH]c3cnccc23)n1` [Compound A4, 4-(1H-pyrrolo[2,3-c]pyridin-3-yl)pyrimidin-2-ylamine] the value was 0.01 to 1 µM.

(Values after patent publication US20100292262A1, “4 (PYRROLO[2,3-C]PYRIDINE-3-YL)PYRIMIDIN-2-AMINE DERIVATIVES” (Merck Patent Gesellschaft Mit Beschrankter Haftung, priority 2008, published 2010).)
